According to ChEMBL document CHEMBL1201862, “PubChem BioAssay data set” (2004):
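Exposure lasted 48 hours, with cells grown in 96-well plates and compounds tested at five concentrations. GI50: concentration for 50% inhibition of growth.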 The source made the active and inactive calls. No stated cut-off is given here; in the data, active = GI50 up to about 1.1 µM and inactive = higher.

Legend:
Assay in all cases: DTP human tumour cell line panel, 48 h
BT-549 = tested on: BT-549
T47D = tested on: T47D
NCI-H23 = tested on: NCI-H23
NCI-H226 = tested on: NCI-H226
SF-268 = tested on: SF-268
HT-29 = tested on: HT-29
CCRF-CEM = tested on: CCRF-CEM
NCI-H522 = tested on: NCI-H522
NCI/ADR-RES = tested on: NCI/ADR-RES
Hs-578T = tested on: Hs-578T
UO-31 = tested on: UO-31
HL-60 = tested on: HL-60
SK-OV-3 = tested on: SK-OV-3
TK-10 = tested on: TK-10
HCT-116 = tested on: HCT-116
HCC 2998 = tested on: HCC 2998
COLO 205 = tested on: COLO 205
MCF7 = tested on: MCF7
EKVX = tested on: EKVX
SF-539 = tested on: SF-539

Structure (SMILES): Cc1c(Cl)c(S(N)(=O)=O)cc(S(N)(=O)=O)c1NC(=O)c1ccc(Cl)cc1
- GI50 (BT-549): > 100 µM (inactive)
- GI50 (T47D): > 100 µM (inactive)
- GI50 (NCI-H23): > 100 µM (inactive)
- GI50 (NCI-H226): > 100 µM (inactive)
- GI50 (SF-268): > 100 µM (inactive)
- GI50 (HT-29): > 100 µM (inactive)
- GI50 (CCRF-CEM): > 100 µM (inactive)
- GI50 (NCI-H522): > 100 µM (inactive)
- GI50 (NCI/ADR-RES): > 100 µM (inactive)
- GI50 (Hs-578T): > 100 µM (inactive)
- GI50 (UO-31): > 100 µM (inactive)
- GI50 (HL-60): > 100 µM (inactive)
- GI50 (SK-OV-3): > 100 µM (inactive)
- GI50 (TK-10): > 100 µM (inactive)
- GI50 (HCT-116): > 100 µM (inactive)
- GI50 (HCC 2998): > 100 µM (inactive)
- GI50 (COLO 205): > 100 µM (inactive)
- GI50 (MCF7): > 100 µM (inactive)

Structure (SMILES): O=C1NC(=S)N/C1=C\c1cccs1
- GI50 (BT-549): > 100 µM (inactive)
- GI50 (EKVX): > 100 µM (inactive)
- GI50 (T47D): 73.1 µM (inactive)
- GI50 (NCI-H23): > 100 µM (inactive)
- GI50 (NCI-H226): > 100 µM (inactive)
- GI50 (SF-268): > 100 µM (inactive)
- GI50 (HT-29): > 100 µM (inactive)
- GI50 (CCRF-CEM): > 100 µM (inactive)
- GI50 (NCI-H522): > 100 µM (inactive)
- GI50 (NCI/ADR-RES): > 100 µM (inactive)
- GI50 (Hs-578T): > 100 µM (inactive)
- GI50 (UO-31): > 100 µM (inactive)
- GI50 (SK-OV-3): > 100 µM (inactive)
- GI50 (TK-10): > 100 µM (inactive)
- GI50 (HCT-116): > 100 µM (inactive)
- GI50 (HCC 2998): > 100 µM (inactive)
- GI50 (COLO 205): > 100 µM (inactive)
- GI50 (SF-539): > 100 µM (inactive)
- GI50 (MCF7): > 100 µM (inactive)

Structure (SMILES): COC(=O)/C=C1/OC(c2ccccc2)=CC1=O
- GI50 (BT-549): 17.7 µM (inactive)
- GI50 (EKVX): 17.9 µM (inactive)
- GI50 (T47D): 20.9 µM (inactive)
- GI50 (NCI-H23): 17.6 µM (inactive)
- GI50 (NCI-H226): 24.6 µM (inactive)
- GI50 (SF-268): 19.1 µM (inactive)
- GI50 (HT-29): 18.5 µM (inactive)
- GI50 (CCRF-CEM): 6.65 µM (inactive)
- GI50 (NCI-H522): 16.9 µM (inactive)
- GI50 (NCI/ADR-RES): 23.2 µM (inactive)
- GI50 (Hs-578T): 22.9 µM (inactive)
- GI50 (UO-31): 17.8 µM (inactive)
- GI50 (HL-60): 2.24 µM (inactive)
- GI50 (SK-OV-3): 17.5 µM (inactive)
- GI50 (TK-10): 18.6 µM (inactive)
- GI50 (HCT-116): 15.9 µM (inactive)
- GI50 (HCC 2998): 18.2 µM (inactive)
- GI50 (COLO 205): 15.9 µM (inactive)
- GI50 (SF-539): 20.3 µM (inactive)
- GI50 (MCF7): 11.7 µM (inactive)

Structure (SMILES): CCC1(CC)C(=O)N(C(=O)c2ccc(Cl)cc2)N(C(=O)c2ccccc2Cl)C1=O
- GI50 (BT-549): 67.9 µM (inactive)
- GI50 (EKVX): 4.58 µM (inactive)
- GI50 (T47D): 62.7 µM (inactive)
- GI50 (NCI-H23): 32.1 µM (inactive)
- GI50 (NCI-H226): 16.2 µM (inactive)
- GI50 (SF-268): 35.4 µM (inactive)
- GI50 (HT-29): 10.7 µM (inactive)
- GI50 (CCRF-CEM): 40.8 µM (inactive)
- GI50 (NCI-H522): 14.4 µM (inactive)
- GI50 (NCI/ADR-RES): 28.3 µM (inactive)
- GI50 (Hs-578T): 43.5 µM (inactive)
- GI50 (UO-31): > 100 µM (inactive)
- GI50 (HL-60): 37.7 µM (inactive)
- GI50 (SK-OV-3): > 100 µM (inactive)
- GI50 (TK-10): 31.2 µM (inactive)
- GI50 (HCT-116): 31.6 µM (inactive)
- GI50 (HCC 2998): > 100 µM (inactive)
- GI50 (COLO 205): > 100 µM (inactive)
- GI50 (MCF7): 43.1 µM (inactive)

Structure (SMILES): O=C(O[C@H](/C=C/c1ccccc1)P1(=O)N(Cc2ccccc2)[C@H]2CCCC[C@@H]2N1Cc1ccccc1)c1ccccc1
- GI50 (BT-549): 5.56 µM (inactive)
- GI50 (EKVX): 4.56 µM (inactive)
- GI50 (T47D): 0.877 µM (active)
- GI50 (NCI-H23): 3.51 µM (inactive)
- GI50 (NCI-H226): 2.33 µM (inactive)
- GI50 (SF-268): 4.12 µM (inactive)
- GI50 (HT-29): 3.8 µM (inactive)
- GI50 (CCRF-CEM): 3.48 µM (inactive)
- GI50 (NCI-H522): 3.48 µM (inactive)
- GI50 (NCI/ADR-RES): 3.05 µM (inactive)
- GI50 (Hs-578T): 9.31 µM (inactive)
- GI50 (UO-31): 4.61 µM (inactive)
- GI50 (HL-60): 2.95 µM (inactive)
- GI50 (SK-OV-3): 5.85 µM (inactive)
- GI50 (TK-10): > 100 µM (inactive)
- GI50 (HCT-116): 2.79 µM (inactive)
- GI50 (HCC 2998): 8.18 µM (inactive)
- GI50 (COLO 205): 1.68 µM (inactive)
- GI50 (SF-539): 3.72 µM (inactive)
- GI50 (MCF7): 3.51 µM (inactive)

Structure (SMILES): C1CSCCSCCCSCCSCCCSCCSCCCSCCSC1
- GI50 (BT-549): > 100 µM (inactive)
- GI50 (EKVX): > 100 µM (inactive)
- GI50 (T47D): 57 µM (inactive)
- GI50 (NCI-H23): > 100 µM (inactive)
- GI50 (NCI-H226): > 100 µM (inactive)
- GI50 (SF-268): > 100 µM (inactive)
- GI50 (HT-29): > 100 µM (inactive)
- GI50 (CCRF-CEM): > 100 µM (inactive)
- GI50 (NCI-H522): > 100 µM (inactive)
- GI50 (NCI/ADR-RES): > 100 µM (inactive)
- GI50 (Hs-578T): > 100 µM (inactive)
- GI50 (UO-31): > 100 µM (inactive)
- GI50 (HL-60): > 100 µM (inactive)
- GI50 (SK-OV-3): > 100 µM (inactive)
- GI50 (TK-10): > 100 µM (inactive)
- GI50 (HCT-116): 62.8 µM (inactive)
- GI50 (HCC 2998): > 100 µM (inactive)
- GI50 (COLO 205): > 100 µM (inactive)
- GI50 (SF-539): > 100 µM (inactive)
- GI50 (MCF7): > 100 µM (inactive)

Structure (SMILES): COc1nc(N)c(N=O)c(OCc2ccccc2)n1
- GI50 (BT-549): 4.01 µM (inactive)
- GI50 (EKVX): 2.64 µM (inactive)
- GI50 (T47D): 2.76 µM (inactive)
- GI50 (NCI-H23): > 10 µM (inactive)
- GI50 (NCI-H226): > 10 µM (inactive)
- GI50 (SF-268): > 10 µM (inactive)
- GI50 (HT-29): 3.38 µM (inactive)
- GI50 (CCRF-CEM): 2.31 µM (inactive)
- GI50 (NCI-H522): 1.71 µM (inactive)
- GI50 (NCI/ADR-RES): 6.55 µM (inactive)
- GI50 (Hs-578T): > 10 µM (inactive)
- GI50 (HL-60): 4.84 µM (inactive)
- GI50 (SK-OV-3): > 10 µM (inactive)
- GI50 (TK-10): > 10 µM (inactive)
- GI50 (HCT-116): 9.71 µM (inactive)
- GI50 (HCC 2998): > 10 µM (inactive)
- GI50 (COLO 205): 1.09 µM (active)
- GI50 (SF-539): 3.3 µM (inactive)
- GI50 (MCF7): 5.04 µM (inactive)
